Source: patent US10617664B2, “Brain derived PPARα ligands” (Rush University Medical Center, priority 2015, dated 2020)
Substitutions are numbered along the chain they refer to.

Columns and labels:
[1] = test system: AMPA-driven calcium influx; test: AMPA-driven calcium influx in transduced Ppara-null hippocampal neurons; format: cell-based, mouse
Description: Ppara-null hippocampal neurons were transduced with lentivirions containing GFP (vector), FL-Ppara, and Y464D-Ppara for 48 h followed by treatment with vehicle (DMSO) (FIG. 11A), OCT (FIG. 11B), HEX (FIG. 11C), HMB (FIG. 11D), and WY14643 (FIG. 11E) for 24 h. Then neurons were stained for phalloidin to measure spine density. FIG. 11F) A representative picture of dendrite with spines (Cyan color) used for counting area of spine heads. Area of spine heads (FIG. 11G) and number of spines (FIG. 11H) in 10 μm of dendrites. Results are mean±SEM of 5 neurons per group. ^ap<0.05 vs vector only; ^bp<0.05 vs FL-Ppara. AMPA-driven calcium influx was measured in OCT (red), HEX (green) and HMB (purple)-treated Ppara-null hippocampal neurons transduced with lentivirions containing FL-Ppara (FIG. 11I), Y314D-Ppara (FIG. 11J), Y464D-Ppara (FIG. 11K), and Y314D/Y464D-Ppara (FIG. 11L). All neurons were treated with 50 μM of NMDA receptor antagonist N20C to inhibit passive calcium flow through NMDA receptor. (FIG. 11M-P) Similarly NMDA-driven calcium influx was measured in the lentivius-infected Ppara-null hippocampal neurons in the presence of different endogenous ligands. In these cases, Naspm-HCl was treated to stop the passive flow of calcium currents through AMPA receptor. Results are mean of three independent experiments.

PPARα = biological target: T1, PPARα (Mus musculus, UniProt P23204); test: Thermal shift assay, full length PPARα with ligands; format: binding; conditions: full length protein with ligand; protein only x=45.96321
T1 construct: GFP; made in house; host or cells: not clearly stated (lentivirus packaged in HEK293FT cells)
T1 sequence (P23204 1-468): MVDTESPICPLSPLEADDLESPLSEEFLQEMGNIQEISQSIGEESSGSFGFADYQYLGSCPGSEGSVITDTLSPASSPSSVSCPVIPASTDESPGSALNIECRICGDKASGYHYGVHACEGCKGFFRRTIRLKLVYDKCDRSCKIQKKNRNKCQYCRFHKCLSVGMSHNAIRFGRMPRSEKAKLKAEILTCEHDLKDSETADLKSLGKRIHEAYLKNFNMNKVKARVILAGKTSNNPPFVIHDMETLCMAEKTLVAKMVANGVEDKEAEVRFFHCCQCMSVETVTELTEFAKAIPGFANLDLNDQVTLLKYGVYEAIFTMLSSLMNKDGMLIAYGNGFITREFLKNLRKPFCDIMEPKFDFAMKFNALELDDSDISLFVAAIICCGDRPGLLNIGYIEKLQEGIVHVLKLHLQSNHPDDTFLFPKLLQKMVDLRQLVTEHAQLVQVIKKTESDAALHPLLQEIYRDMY
Description: (§1) Lentivirus-mediated de novo expression studies were performed, where wild type full-length (GFP-FLPpara) was overexpressed and three different LBD-mutated PPARα (GFP-Y314D, GFP-Y464D and GFP-Y314D/Y464D Ppara) recombinant proteins (FIG. 9D) were expressed in neurons followed by binding analyses with three endogenous ligands. Briefly, site directed mutagenesis was performed in the mouse PPARα with Y314 and Y464 residues replaced separately or together with aspartate (D). After that, the entire mouse GFP-Ppara gene (GFP-FLPpara) and three different mutated genes were cloned in the pLenti6/V5-TOPO lentiviral expression vector (FIG. 3D), packaged in lentivirus particle with HEK293FT cells, purified full length and mutated PPARα proteins in a GFP-affinity column, and finally thermal shift assays were performed in order to analyze their conformational stability. […] After 48 h of transduction, the cells were homogenized, passed through GFP-affinity column, eluted, fractionated with chloroform-methanol, and finally analyzed by GC-MS for the detection of ligands. […] On the other hand, mutation of the Y464 completely knocked down the ligand binding affinity as we observed profound loss of ligand binding in both lenti-GFP-Y464D-Ppara (FIG. 3K, FIG. 9K) and lenti-GFP-Y314D/Y464D-Ppara (FIG. 3L, FIG. 9L)-transduced Ppara-null neurons. Throughout these analyses, we used 2,4-bis (α, α-dimethyl benzyl) phenol as an internal standard (Supplementary FIG. 5A-F). We normalized peak area of different ligands with that of internal standard and then quantified the binding affinity of these ligands with different construct of PPARα by peak integration statistics (Table 1).
(§2) Thermal shift assays were performed in Applied Biosystems 7500 standard real-time thermal cycler machine with commercially available thermal shift dye kit (Life technologies; Cat #4461146). For each reaction, purified protein (0.5 μg to 1 μg) was added to 18 μL of thermal shift buffer provided with the kit, and 1-2 μL of dye. […]

Y464D-PPARα = biological target: T2, Y464D-PPARα (Mus musculus, UniProt P23204, Y464D); test: Thermal shift assay, Y464D-PPARα with ligands; format: binding
T2 construct: the entire mouse GFP-Ppara gene (GFP-FLPpara) and three different mutated genes were cloned; GFP; made in house; host or cells: not clearly stated (lentivirus packaged in HEK293FT cells)
T2 sequence (P23204 1-468 Y464D): T1 sequence (P23204 1-468) with Y464D
Description: as §1, §2

Row | x at y=50 of thermal shift curve (melting temperature) (PPARα) | effect on Tm of Y464D-PPARα (Y464D-PPARα) | Structure (SMILES) | AMPA-mediated calcium influx ([1]; lenti-FL-Ppara) | AMPA-mediated calcium influx ([1]; lenti-Y314D-Ppara) | AMPA-mediated calcium influx ([1]; lenti-Y314D/Y464D-Ppara) | AMPA-mediated calcium influx ([1]; lenti-Y464D-Ppara)
1 | 59.2835 | did not alter the Tm | CCCCCCCCCCCCCCCC(N)=O [HEX, hexadecanamide] | stimulated | partially restore | remained unable to increase | remained unable to increase
2 | 58.49 | did not alter the Tm | CCOC(=O)C(C)(C)C(C)O (stereo not drawn) [HMB] | stimulated | partially restore | remained unable to increase | remained unable to increase
3 | 59.6128 | did not alter the Tm | CCCCCCCCC=CCCCCCCCC(N)=O [OCT, 9-octadecenamide] | stimulated | partially restore | remained unable to increase | remained unable to increase
